Consider 5 molecules from patent publication EP0933350A1, “Tricyclic retinoids, methods for their production and use” (LIGAND PHARMACEUTICALS INCORPORATED, priority 1994, dated 1996).

The experiment has as its target T1, RARα (Homo sapiens, UniProt P10276).
T1 sequence (P10276 1-462): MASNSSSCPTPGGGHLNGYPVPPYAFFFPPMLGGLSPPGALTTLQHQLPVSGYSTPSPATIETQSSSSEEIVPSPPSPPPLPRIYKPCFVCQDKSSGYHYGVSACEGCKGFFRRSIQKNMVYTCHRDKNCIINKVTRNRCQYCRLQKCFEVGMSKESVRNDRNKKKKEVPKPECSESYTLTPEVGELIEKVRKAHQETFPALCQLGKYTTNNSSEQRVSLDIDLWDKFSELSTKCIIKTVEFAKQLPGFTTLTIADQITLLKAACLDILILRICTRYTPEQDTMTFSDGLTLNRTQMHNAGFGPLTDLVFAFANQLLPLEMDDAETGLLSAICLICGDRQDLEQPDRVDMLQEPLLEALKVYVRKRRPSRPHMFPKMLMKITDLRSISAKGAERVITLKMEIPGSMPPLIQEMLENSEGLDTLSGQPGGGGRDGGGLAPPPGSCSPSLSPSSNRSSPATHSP
Put plainly: competitive binding of tritiated retinoids to retinoid receptors. Conditions: competition with tritiated retinoid, Cheng-Prussof equation.

Regarding `CC(/C=C/C=C1/CCCc2cc3c(cc21)C(C)(C)CCC3(C)C)=C\C(=O)O` [Compound 101b, (2E,4E)-3-Methyl-6-[(Z)-3,4,5,6,7,8-hexahydro-5,5,8,8-tetramethyl-2H-anthracen-1-ylidene]hexa-2,4-dienoic acid], the Kd stood at 225 nM. For `CC(/C=C/C=C1\CCCc2cc3c(cc21)C(C)(C)CCC3(C)C)=C\C(=O)O` [Compound 109b, (2E,4E)-3-Methyl-6-[(E)-3,4,5,6,7,8-hexahydro-5,5,8,8-tetramethyl-2H-anthracen-1-ylidene]hexa-2,4-dienoic acid] the value was 33 nM; for `CC(/C=C/C=C1\CCOc2cc3c(cc21)C(C)(C)CCC3(C)C)=C\C(=O)O` [Compound 119b, (2E,4E)-3-Methyl-6-[(E)-2,3,6,7,8,9-hexahydro-6,6,9,9-tetramethylbenzo[g]chromen-4-ylidene]hexa-2,4-dienoic acid], 24 nM. Next, `CC(/C=C/CN1CCCCc2cc3c(cc21)C(C)(C)CCC3(C)C)=C\C(=O)O` [Compound 138b, (2E,4E)-3-Methyl-6-[7,7,10,10-tetramethyl-2,3,4,5,7,8,9,10-octahydronaphtho[2,3-6]azepinyl)hexa-2,4-dienoic acid]: above 1000 nM; `CC(/C=C/C=C1/CCOc2cc3c(cc21)C(C)(C)CCC3(C)C)=C\C(=O)O` [Compound 144b]: 145 nM.

For orientation: Kd means the free concentration of one partner at which half of the binding sites on the other are occupied at equilibrium, for simple one-to-one binding.
